Earlier results as cited in patent US4486419A, “5,2',3',4',4",6"-Hexadeoxykanamycin and its 1-N-acylated derivative” (Zaidan Hojin Biseibutsu Kagaku Kenkyu Kai, priority 1982, dated 1984).

Tested on: dibekacin-resistant bacteria
Settings: background, U.S. Pat. No. 4,107,424; cited from earlier work

NCC[C@H](O)C(=O)N[C@@H]1C[C@H](N)[C@@H](O[C@H]2O[C@H](CN)CC[C@H]2N)[C@H](O)[C@H]1O[C@H]1O[C@H](CO)[C@@H](O)[C@H](N)[C@H]1O [Habekacin, 1-N-[(S)-4-amino-2-hydroxybutyryl] dibekacin]
activity against dibekacin-resistant bacteria: active against dibekacin-resistant bacteria
